Assay results from patent US8350027B2, “Dual-acting pyrazole antihypertensive agents” (Theravance, Inc., priority 2009, dated 2013).

Key:
[1] = target: T1, human AT1 receptor (Homo sapiens, UniProt P30556); assay: AT1 radioligand binding assay (displacement of [Eu]AngII); details: membranes of CHO-K1 cells expressing cloned human AT1 receptor; values given as lower bounds; read-out: AT1 pKi (converted)
T1 construct: expressed in transfected cells; host or cells: CHO-K1
T1 sequence (P30556 1-359): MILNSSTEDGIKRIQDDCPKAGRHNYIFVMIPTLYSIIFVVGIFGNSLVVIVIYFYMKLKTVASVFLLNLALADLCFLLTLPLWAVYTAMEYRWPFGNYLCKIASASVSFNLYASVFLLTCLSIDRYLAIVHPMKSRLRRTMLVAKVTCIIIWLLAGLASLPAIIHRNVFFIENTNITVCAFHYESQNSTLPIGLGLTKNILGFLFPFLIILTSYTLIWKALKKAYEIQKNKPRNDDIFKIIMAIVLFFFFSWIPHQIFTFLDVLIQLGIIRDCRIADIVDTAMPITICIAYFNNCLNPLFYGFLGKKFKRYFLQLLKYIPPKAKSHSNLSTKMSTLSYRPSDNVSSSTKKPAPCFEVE
How it was run: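 Membranes from CHO-K1 cells stably expressing cloned human AT1, 0.2 μg protein, in 50 mM Tris/HCl pH 7.5, 5 mM MgCl2, 0.025% BSA. Compounds displaced [Eu]AngII over 120 min in the dark at room temperature or 37° C; filter-bound TRF read. Nonspecific binding with 10 μM angiotensin II; IC50 converted to Ki via Cheng-Prusoff, reported as pKi.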

[2] = target: T2, NEP enzyme (Homo sapiens, UniProt P08473); assay: NEP enzyme inhibition assay (fluorogenic peptide substrate); assay type: biochemical; details: values given as lower bounds; * = prodrugs, may not exhibit NEP activity in an in vitro assay; read-out: NEP pIC50 (converted)
T2 construct: purchased R&D Systems, Minneapolis, Minn; 1182-ZN
T2 sequence (P08473 52-750 limits assumed): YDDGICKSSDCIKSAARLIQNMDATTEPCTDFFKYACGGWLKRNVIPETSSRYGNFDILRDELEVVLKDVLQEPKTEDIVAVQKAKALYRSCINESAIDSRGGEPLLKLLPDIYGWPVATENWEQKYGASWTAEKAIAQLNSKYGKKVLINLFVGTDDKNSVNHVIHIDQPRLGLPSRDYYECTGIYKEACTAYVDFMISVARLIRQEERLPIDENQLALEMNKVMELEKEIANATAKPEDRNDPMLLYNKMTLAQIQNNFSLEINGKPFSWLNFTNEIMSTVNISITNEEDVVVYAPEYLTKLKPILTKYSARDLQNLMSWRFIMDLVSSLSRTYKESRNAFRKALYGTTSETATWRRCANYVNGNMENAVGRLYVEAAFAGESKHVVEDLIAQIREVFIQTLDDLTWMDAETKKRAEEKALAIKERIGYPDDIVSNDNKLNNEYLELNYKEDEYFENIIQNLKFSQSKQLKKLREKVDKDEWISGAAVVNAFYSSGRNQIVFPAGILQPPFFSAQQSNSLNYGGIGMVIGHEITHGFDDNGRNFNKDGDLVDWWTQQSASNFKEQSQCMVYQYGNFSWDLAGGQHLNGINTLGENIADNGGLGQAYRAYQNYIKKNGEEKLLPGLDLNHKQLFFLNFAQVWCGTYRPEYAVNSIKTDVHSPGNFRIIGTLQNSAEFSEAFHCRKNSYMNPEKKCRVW
How it was run: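 Recombinant human NEP was run with Mca-BK2 (10 μM) at room temperature in Tris buffer with 1 μM Zn. Compounds (10 μM–20 pM, 12 points) were pre-equilibrated 10 min, then reacted 20 min and acid-stopped. Fluorescence ex 320/em 405 nm, one-site competition fit gives pIC50. Thiol compounds may be pre-treated with 400 μM TCEP.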

Q: For CCCc1cc(C(=O)N[C@@H](CC(=O)O)Cc2ccccc2C(F)(F)F)nn1Cc1ccc(-c2ccccc2-c2nnn[nH]2)cc1 [Example 3-36, (R)-3-({5-Propyl-1-[2′-(1H-tetrazol-5-yl)-biphenyl-4-ylmethyl]-1H-pyrazole-3-carbonyl}amino)-4-(2-trifluoromethylphenyl)butyric acid], which Ki [1] is on record?
A: ≤ 100 nM

Q: What about the IC50 [2] of the same molecule?
A: ≤ 1000 nM

Q: Which results are given for CCc1cc(C(=O)N[C@H](Cc2ccccc2)[C@@H](O)C(=O)O)nn1Cc1ccc(-c2ccccc2-c2nnn[nH]2)cc1F [Example 3-37, (2R,3R)-3-({5-Ethyl-1-[3-fluoro-2′-(1H-tetrazol-5-yl)-biphenyl-4-ylmethyl]-1H-pyrazole-3-carbonyl}amino)-2-hydroxy-4-phenylbutyric acid]?
A: Ki [1]: ≤ 100 nM; IC50 [2]: ≤ 10000 nM

Q: Which results are given for CCOc1cc(C(=O)N[C@@H](CS)CC(C)C)nn1Cc1ccc(-c2ccccc2-c2nnn[nH]2)cc1F [Example 3-38, 5-Ethoxy-1-[3-fluoro-2′-(1H-tetrazol-5-yl)biphenyl-4-ylmethyl]-1H-pyrazole-3-carboxylic acid ((R)-1-mercaptomethyl-3-methylbutyl)amide]?
A: Ki [1]: ≤ 100 nM; IC50 [2]: ≤ 100 nM

Q: Which Ki [1] does the source give for CCCc1cc(C(=O)N[C@H](Cc2ccccc2)[C@@H](O)C(=O)O)nn1Cc1ccc(-c2ccccc2S(=O)(=O)NC(C)=O)cc1 [Example 4, (2R,3R)-3-(1-((2′-(N-Acetylsulfamoyl)biphenyl-4-yl)methyl)-5-propyl-1H-pyrazole-3-carboxamido)-2-hydroxy-4-phenylbutanoic Acid] here?
A: ≤ 10 nM

Q: What about the IC50 [2] of the same molecule?
A: ≤ 100 nM

Q: Which Ki [1] does the source give for CCCc1cc(C(=O)N[C@H](Cc2ccccc2)[C@@H](O)C(=O)O)nn1Cc1ccc(-c2ccccc2S(=O)(=O)NC(=O)OC)cc1 [Example 5, (2R,3R)-2-hydroxy-3-(1-((2′-(N-(methoxycarbonyl)-sulfamoyl)biphenyl-4-yl)methyl)-5-propyl-1H-pyrazole-3-carboxamido)-4-phenylbutanoic Acid] here?
A: ≤ 10 nM

Q: What about the IC50 [2] of the same molecule?
A: ≤ 100 nM

Q: How did the Ki [1] turn out when CCOc1cc(C(=O)N[C@@H](CS)Cc2ccccc2)nn1Cc1ccc(-c2ccccc2S(=O)(=O)NC(C)=O)cc1F [Example 6-1, 1-(2′-Acetylsulfamoyl-3-fluorobiphenyl-4-ylmethyl)-5-ethoxy-1H-pyrazole-3-carboxylic acid ((R)-1-benzyl-2-mercaptoethyl)amide] was run?
A: ≤ 10 nM

Q: And the IC50 [2]?
A: ≤ 100 nM

Q: For CCOc1cc(C(=O)N[C@@H](CS)Cc2ccccc2)nn1Cc1ccc(-c2ccccc2S(=O)(=O)NC(C)=O)cc1 [Example 6-2, 1-(2′-Acetylsulfamoyl-biphenyl-4-ylmethyl)-5-ethoxy-1H-pyrazole-3-carboxylic acid ((R)-1-benzyl-2-mercaptoethyl)amide], which Ki [1] is on record?
A: ≤ 10 nM

Q: What about the IC50 [2] of the same molecule?
A: ≤ 100 nM

Q: CCOc1cc(C(=O)N[C@H](Cc2ccccc2)[C@@H](O)C(=O)O)nn1Cc1ccc(-c2ccccc2S(=O)(=O)NC(C)=O)cc1 [Example 6-3, (2R,3R)-3-{[1-(2′-Acetylsulfamoylbiphenyl-4-ylmethyl)-5-ethoxy-1H-pyrazole-3-carbonyl]amino}-2-hydroxy-4-phenyl-butyric acid] was tested. Which Ki [1] did it give?
A: ≤ 100 nM

Q: And the IC50 [2]?
A: ≤ 1000 nM

Q: With CCOc1cc(C(=O)N[C@H](Cc2ccccc2)[C@@H](O)C(=O)O)nn1Cc1ccc(-c2ccccc2S(=O)(=O)NC(C)=O)cc1F [Example 6-4, (2R,3R)-3-{[1-(2′-Acetylsulfamoyl-3-fluorobiphenyl-4-ylmethyl)-5-ethoxy-1H-pyrazole-3-carbonyl]amino}-2-hydroxy-4-phenylbutyric acid] as the molecule, how does the Ki [1] read?
A: ≤ 10 nM

Q: And the IC50 [2]?
A: ≤ 100 nM

Q: Which results are given for CCCc1cc(C(=O)N[C@@H](CS)Cc2ccccc2)nn1Cc1ccc(-c2ccccc2S(=O)(=O)NC(C)=O)cc1 [Example 6-5, 1-(2′-Acetylsulfamoylbiphenyl-4-ylmethyl)-5-propyl-1H-pyrazole-3-carboxylic acid ((R)-1-benzyl-2-mercaptoethyl)amide]?
A: Ki [1]: ≤ 10 nM; IC50 [2]: ≤ 100 nM

Q: Which results are given for CCCc1cc(C(=O)N[C@@H](CS)Cc2ccccc2)nn1Cc1ccc(-c2ccccc2S(=O)(=O)NC(C)=O)c(F)c1 [Example 6-6, 1-(2′-Acetylsulfamoyl-2-fluorobiphenyl-4-ylmethyl)-5-propyl-1H-pyrazole-3-carboxylic acid ((R)-1-benzyl-2-mercaptoethyl)amide]?
A: Ki [1]: ≤ 10 nM; IC50 [2]: ≤ 100 nM

Q: CCCc1cc(C(=O)N[C@H](Cc2ccccc2)[C@@H](O)C(=O)O)nn1Cc1ccc(-c2ccccc2S(=O)(=O)NC(C)=O)c(F)c1 [Example 6-7, (2R,3R)-3-{[1-(2′-Acetylsulfamoyl-2-fluorobiphenyl-4-ylmethyl)-5-propyl-1H-pyrazole-3-carbonyl]amino}-2-hydroxy-4-phenylbutyric acid] was tested. Which Ki [1] did it give?
A: ≤ 10 nM

Q: And the IC50 [2]?
A: ≤ 100 nM

Q: How did the Ki [1] turn out when CCCc1cc(C(=O)N[C@@H](CC(=O)O)Cc2ccccc2Br)nn1Cc1ccc(-c2ccccc2S(=O)(=O)NC(C)=O)cc1 [Example 6-8, (R)-3-{[1-(2′-Acetylsulfamoylbiphenyl-4-ylmethyl)-5-propyl-1H-pyrazole-3-carbonyl]amino}-4-(2-bromophenyl)butyric acid] was run?
A: ≤ 10 nM

Q: And the IC50 [2]?
A: ≤ 1000 nM

Q: For CCCc1cc(C(=O)N[C@H](Cc2ccccc2Cl)[C@@H](O)C(=O)O)nn1Cc1ccc(-c2ccccc2S(=O)(=O)NC(C)=O)cc1 [Example 6-9, (2R,3R)-3-{[1-(2′-Acetylsulfamoylbiphenyl-4-ylmethyl)-5-propyl-1H-pyrazole-3-carbonyl]-amino}-4-(2-chlorophenyl)-2-hydroxy-butyric acid], which Ki [1] is on record?
A: ≤ 10 nM

Q: What about the IC50 [2] of the same molecule?
A: ≤ 100 nM

Q: Which Ki [1] does the source give for CCc1cc(C(=O)N[C@H](Cc2ccccc2)[C@@H](O)C(=O)O)nn1Cc1ccc(-c2ccccc2S(=O)(=O)NC(C)=O)cc1F [Example 6-10, (2R,3R)-3-{[1-(2′-Acetylsulfamoyl-3-fluoro-biphenyl-4-ylmethyl)-5-ethyl-1H-pyrazole-3-carbonyl]amino}-2-hydroxy-4-phenylbutyric acid] here?
A: ≤ 100 nM

Q: And the IC50 [2]?
A: ≤ 100 nM

Q: CCCCc1cc(C(=O)N[C@H](Cc2ccccc2)[C@@H](O)C(=O)O)nn1Cc1ccc(-c2ccccc2S(=O)(=O)NC(C)=O)cc1F [Example 6-11, (2R,3R)-3-{[1-(2′-Acetylsulfamoyl-3-fluorobiphenyl-4-ylmethyl)-5-butyl-1H-pyrazole-3-carbonyl]amino}-2-hydroxy-4-phenylbutyric acid] was tested. Which Ki [1] did it give?
A: ≤ 10 nM

Q: What about the IC50 [2] of the same molecule?
A: ≤ 1000 nM

Q: CCCc1cc(C(=O)N[C@H](Cc2ccccc2)[C@@H](O)C(=O)O)nn1Cc1ccc(-c2ccccc2S(=O)(=O)NC(=O)C(C)C)cc1 [Example 6-12, (2R,3R)-2-Hydroxy-3-{[1-(2′-isobutyrylsulfamoylbiphenyl-4-ylmethyl)-5-propyl-1H-pyrazole-3-carbonyl]amino}-4-phenylbutyric acid] was tested. Which Ki [1] did it give?
A: ≤ 10 nM

Q: What about the IC50 [2] of the same molecule?
A: ≤ 1000 nM

Q: CCCc1cc(C(=O)N[C@H](Cc2ccccc2)CN(O)C=O)nn1Cc1ccc(-c2ccccc2S(=O)(=O)NC(C)=O)cc1 [Example 6-13, 1-(2′-Acetylsulfamoyl-biphenyl-4-ylmethyl)-5-propyl-1H-pyrazole-3-carboxylic acid [(R)-1-benzyl-2-(formyl-hydroxy-amino)-ethyl]amide] was tested. Which Ki [1] did it give?
A: ≤ 10 nM

Q: What about the IC50 [2] of the same molecule?
A: ≤ 100 nM

Q: Which Ki [1] does the source give for CCCc1cc(C(=O)N[C@H](Cc2ccccc2)[C@@H](O)C(=O)O)nn1Cc1ccc(-c2ccccc2S(=O)(=O)NC(C)=O)cc1F [Example 6-14, (2R,3R)-3-(1-((2′-(N-acetylsulfamoyl)-3-fluorobiphenyl-4-yl)methyl)-5-propyl-1H-pyrazole-3-carboxamido)-2-hydroxy-4-phenylbutanoic acid] here?
A: ≤ 10 nM

Q: And the IC50 [2]?
A: ≤ 100 nM

Q: CCCc1cc(C(=O)N[C@H](CC(C)C)CN(O)C=O)nn1Cc1ccc(-c2ccccc2S(=O)(=O)NC(C)=O)cc1 [Example 6-15, 1-(2′-Acetylsulfamoyl-biphenyl-4-ylmethyl)-5-propyl-1H-pyrazole-3-carboxylic acid {(R)-1-[(formyl-hydroxy-amino)-methyl]-3-methylbutyl}amide] was tested. Which Ki [1] did it give?
A: ≤ 10 nM

Q: What about the IC50 [2] of the same molecule?
A: ≤ 100 nM

Q: How did the Ki [1] turn out when CCCc1cc(C(=O)N[C@@H](CC(=O)NO)Cc2ccccc2)nn1Cc1ccc(-c2ccccc2S(=O)(=O)NC(C)=O)cc1F [Example 6-16, 1-(2′-Acetylsulfamoyl-3-fluorobiphenyl-4-ylmethyl)-5-propyl-1H-pyrazole-3-carboxylic acid ((R)-1-hydroxycarbamoylmethyl-2-phenylethyl)amide] was run?
A: ≤ 10 nM

Q: What about the IC50 [2] of the same molecule?
A: ≤ 100 nM

Q: For CCCc1cc(C(=O)N[C@@H](CC(=O)NO)Cc2ccccc2)nn1Cc1ccc(-c2ccccc2S(=O)(=O)NC(C)=O)c(F)c1 [Example 6-17, 1-(2′-Acetylsulfamoyl-2-fluorobiphenyl-4-ylmethyl)-5-propyl-1H-pyrazole-3-carboxylic acid ((R)-1-hydroxycarbamoylmethyl-2-phenylethyl)amide], which Ki [1] is on record?
A: ≤ 10 nM

Q: And the IC50 [2]?
A: ≤ 100 nM
